From patent publication US9255101B2 (BIOPROJECT, priority 2012, dated 2016)
Where a name gives a salt, the structure may show the parent alone.

target: human H4 receptor (Homo sapiens, UniProt Q9H3N8); assay: biochemical
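Also: radioligand displacement of a [3H]-labelled ligand from membranes of CHO cells stably expressing human H4 receptor, bound radioactivity counted on filters by liquid scintillation.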

human H4 receptor, sequence (Q9H3N8 whole entry): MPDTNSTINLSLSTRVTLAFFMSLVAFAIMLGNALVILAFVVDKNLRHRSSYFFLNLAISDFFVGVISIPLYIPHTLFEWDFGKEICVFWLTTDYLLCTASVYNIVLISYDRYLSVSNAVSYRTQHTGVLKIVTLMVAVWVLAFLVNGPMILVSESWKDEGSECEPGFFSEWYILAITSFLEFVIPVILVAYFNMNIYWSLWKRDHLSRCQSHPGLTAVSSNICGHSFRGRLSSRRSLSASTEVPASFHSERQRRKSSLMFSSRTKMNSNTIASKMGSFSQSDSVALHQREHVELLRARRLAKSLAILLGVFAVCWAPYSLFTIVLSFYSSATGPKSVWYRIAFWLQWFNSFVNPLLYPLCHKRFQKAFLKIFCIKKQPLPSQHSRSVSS

Cc1c(-c2ccc(N3CCN(C(C)C)C3=O)cc2)nc2n1CCc1ccccc1C2OC1CCN(C)CC1 (stereo not drawn) [Example 178, 1-isopropyl-3-{4-[1-methyl-4-(1-methylpiperidin-4-yloxy)-9,10-dihydro-4H-3,10a-diaza-benzo[f]azulen-2-yl]-phenyl}-imidazolidin-2-one] and Cc1c(-c2ccc(C(=O)N3CCC(=O)CC3)cc2)nc2n1CCc1ccccc1C2OC1CCN(C)CC1 (stereo not drawn) [Example 218, 1-{4-[1-methyl-4-(1-methylpiperidin-4-yloxy)-9,10-dihydro-4H-3,10a-diaza-benzo[f]azulen-2-yl]-benzoyl}-piperidin-4-one] cannot be ordered by Ki: under 0.03 µM for the first, under 0.3 µM for the second.

CN1CCC(OC2c3ccccc3CCn3cc(-c4ccccc4CO)nc32)CC1 (stereo not drawn) [Example 179, {2-[4-(1-methylpiperidin-4-yloxy)-9,10-dihydro-4H-3,10a-diaza-benzo[f]azulen-2-yl]-phenyl}-methanol oxalate] and CN1CCC(OC2c3ccccc3CCn3cc(-c4ccccc4[N+](=O)[O-])nc32)CC1 (stereo not drawn) [Example 190, 4-(1-methylpiperidin-4-yloxy)-2-(2-nitrophenyl)-9,10-dihydro-4H-3,10a-diaza-benzo[f]azulene] cannot be ordered by Ki: under 0.3 µM for the first, under 0.3 µM for the second.

CN(C)CCOc1ccc(-c2cn3c(n2)C(OC2CCN(C)CC2)c2ccccc2CC3)cc1 (stereo not drawn) [Example 180, dimethyl-(2-{4-[4-(1-methylpiperidin-4-yloxy)-9,10-dihydro-4H-3,10a-diaza-benzo[f]azulen-2-yl]-phenoxy}-ethyl)-amine] and C=CCOc1ccc(-c2cn3c(n2)C(OC2CCN(C)CC2)c2ccccc2CC3)cc1 (stereo not drawn) [Example 183, 2-(4-allyloxyphenyl)-4-(1-methylpiperidin-4-yloxy)-9,10-dihydro-4H-3,10a-diaza-benzo[f]azulene] cannot be ordered by Ki: under 0.3 µM for the first, under 0.03 µM for the second.

CN1CCC(OC2c3ccccc3CCn3cc(-c4ccc(CN5CCOC5=O)cc4)nc32)CC1 (stereo not drawn) [Example 181, 3-{4-[4-(1-methylpiperidin-4-yloxy)-9,10-dihydro-4H-3,10a-diaza-benzo[f]azulen-2-yl]-benzyl}-oxazolidin-2-one] and CN1CCC(OC2c3ccccc3CCn3cc(-c4ccc(CN5CCCC5=O)cc4)nc32)CC1 (stereo not drawn) [Example 184, 1-{4-[4-(1-methylpiperidin-4-yloxy)-9,10-dihydro-4H-3,10a-diaza-benzo[f]azulen-2-yl]benzyl}-pyrrolidin-2-one] cannot be ordered by Ki: under 0.3 µM for the first, under 1 µM for the second.

CN1CCC(OC2c3ccccc3CCn3cc(-c4ccc(CN(C)C(=O)OC(C)(C)C)cc4)nc32)CC1 (stereo not drawn) [Example 182, methyl-{4-[4-(1-methylpiperidin-4-yloxy)-9,10-dihydro-4H-3,10a-diaza-benzo[f]azulen-2-yl]benzyl}-carbamic acid tert-butyl ester] and CN1CCC(OC2c3ccccc3CCn3cc(-c4ccc(CCN(C)C(=O)OC(C)(C)C)cc4)nc32)CC1 (stereo not drawn) [Example 197, methyl-(2-{4-[4-(1-methylpiperidin-4-yloxy)-9,10-dihydro-4H-3,10a-diaza-benzo[f]azulen-2-yl]-phenyl}-ethyl)-carbamic acid tert-butyl ester] cannot be ordered by Ki: under 0.3 µM for the first, under 0.03 µM for the second.

CN1CCC(OC2c3ccccc3CCn3cc(-c4ccc(CN5CCCCC5=O)cc4)nc32)CC1 (stereo not drawn) [Example 185, 1-{4-[4-(1-methylpiperidin-4-yloxy)-9,10-dihydro-4H-3,10a-diaza-benzo[f]azulen-2-yl]benzyl}-piperidin-2-one] and CN1CCC(OC2c3ccccc3CCn3cc(-c4ccc(CN5CCN(C(C)(C)C)C5=O)cc4)nc32)CC1 (stereo not drawn) [Example 191, 1-tertbutyl-3-{4-[4-(1-methylpiperidin-4-yloxy)-9,10-dihydro-4H-3,10a-diaza-benzo[f]azulen-2-yl]benzyl}-imidazolidin-2-one] cannot be ordered by Ki: under 0.3 µM for the first, under 0.3 µM for the second.

CC(C)SCc1ccc(-c2cn3c(n2)C(OC2CCN(C)CC2)c2ccccc2CC3)cc1 (stereo not drawn) [Example 186, 2-(4-isopropylsulfanylmethylphenyl)-4-(1-methylpiperidin-4-yloxy)-9,10-dihydro-4H-3,10a-diaza-benzo[f]azulene] and CN1CCC(OC2c3ccccc3CCn3cc(-c4ccc(CCO)cc4)nc32)CC1 (stereo not drawn) [Example 192, 2-{4-[4-(1-methylpiperidin-4-yloxy)-9,10-dihydro-4H-3,10a-diaza-benzo[f]azulen-2-yl]-phenyl}-ethanol] cannot be ordered by Ki: under 0.3 µM for the first, under 0.3 µM for the second.

CN1CCC(OC2c3ccccc3CCn3cc(-c4ccc(CCSC(C)(C)C)cc4)nc32)CC1 (stereo not drawn) [Example 189, 2-[4-(2-tert-butylsulfanylethyl)-phenyl]-4-(1-methylpiperidin-4-yloxy)-9,10-dihydro-4H-3,10a-diaza-benzo[f]azulene] and CN1CCC(OC2c3ccccc3CCn3cc(-c4ccc(CCNC(=O)OC(C)(C)C)cc4)nc32)CC1 (stereo not drawn) [Example 196] cannot be ordered by Ki: under 0.3 µM for the first, under 0.3 µM for the second.

CN1CCC(OC2c3ccccc3CCn3cc(-c4ccc(OCC5CC5)cc4)nc32)CC1 (stereo not drawn) [Example 193, 2-(4-cyclopropylmethoxyphenyl)-4-(1-methylpiperidin-4-yloxy)-9,10-dihydro-4H-3,10a-diaza-benzo[f]azulene] and CN1CCC(OC2c3ccccc3CCn3cc(-c4ccc(C(=O)NCCO)cc4)nc32)CC1 (stereo not drawn) [Example 212, N-(2-hydroxyethyl)-4-[4-(1-methylpiperidin-4-yloxy)-9,10-dihydro-4H-3,10a-diaza-benzo[f]azulen-2-yl]benzamide] cannot be ordered by Ki: under 0.3 µM for the first, under 1 µM for the second.

CN1CCC(OC2c3ccccc3CCn3cc(-c4ccc(CN5C(=O)OC(C)(C)C5=O)cc4)nc32)CC1 (stereo not drawn) [Example 198, 5,5-dimethyl-3-{4-[4-(1-methylpiperidin-4-yloxy)-9,10-dihydro-4H-3,10a-diaza-benzo[f]azulen-2-yl]benzyl}-oxazolidine-2,4-dione] and CN1CCC(OC2c3ccccc3CCn3cc(-c4ccc(CCOC(=O)NC(C)(C)C)cc4)nc32)CC1 (stereo not drawn) [Example 200, tert-butyl-carbamic acid 2-{4-[4-(1-methylpiperidin-4-yloxy)-9,10-dihydro-4H-3,10a-diaza-benzo[f]azulen-2-yl]-phenyl}-ethyl ester] cannot be ordered by Ki: under 0.3 µM for the first, under 0.3 µM for the second.

CN1CCC(OC2c3ccccc3CCn3cc(-c4ccc(CSCCNC(=O)OC(C)(C)C)cc4)nc32)CC1 (stereo not drawn) [Example 199, (2-{4-[4-(1-methylpiperidin-4-yloxy)-9,10-dihydro-4H-3,10a-diaza-benzo[f]azulen-2-yl]benzylsulfanyl}-ethyl)-carbamic acid tert-butyl ester] and Cc1c(-c2ccc(CCNC(=O)OC(C)(C)C)cc2)nc2n1CCc1ccccc1C2OC1CCN(C)CC1 (stereo not drawn) [Example 223, (2-{4-[1-methyl-4-(1-methylpiperidin-4-yloxy)-9,10-dihydro-4H-3,10a-diaza-benzo[f]azulen-2-yl]-phenyl}-ethyl)-carbamic acid tert-butyl ester] cannot be ordered by Ki: under 0.3 µM for the first, under 0.03 µM for the second.

CN1CCC(OC2c3ccccc3CCn3cc(C(C)(C)c4ccccc4)nc32)CC1 (stereo not drawn) [Example 207, 2-(1-methyl-1-phenyl-ethyl)-4-(1-methylpiperidin-4-yloxy)-9,10-dihydro-4H-3,10a-diaza-benzo[f]azulene] and Cc1c(-c2ccc(NC(=O)NC(C)(C)C)cc2)nc2n1CCc1ccccc1C2OC1CCN(C)CC1 (stereo not drawn) [Example 209, 1-tertbutyl-3-{4-[1-methyl-4-(1-methylpiperidin-4-yloxy)-9,10-dihydro-4H-3,10a-diaza-benzo[f]azulen-2-yl]-phenyl}-urea] cannot be ordered by Ki: under 1 µM for the first, under 0.03 µM for the second.

Cc1c(-c2ccc(NC(=S)NC3CC3)cc2)nc2n1CCc1ccccc1C2OC1CCN(C)CC1 (stereo not drawn) [Example 208, 1-cyclopropyl-3-{4-[1-methyl-4-(1-methylpiperidin-4-yloxy)-9,10-dihydro-4H-3,10a-diaza-benzo[f]azulen-2-yl]-phenyl}-thiourea] and Cc1c(-c2ccc(C(=O)NC3CCC(O)CC3)cc2)nc2n1CCc1ccccc1C2OC1CCN(C)CC1 (stereo not drawn) [Example 216, N-(4-hydroxycyclohexyl)-4-[1-methyl-4-(1-methylpiperidin-4-yloxy)-9,10-dihydro-4H-3,10a-diaza-benzo[f]azulen-2-yl]-benzamide] cannot be ordered by Ki: under 0.3 µM for the first, under 0.3 µM for the second.

Cc1c(C(O)C(C)C)nc2n1CCc1ccccc1C2OC1CCN(C)CC1 (stereo not drawn) [Example 210, 2-methyl-1-[1-methyl-4-(1-methylpiperidin-4-yloxy)-9,10-dihydro-4H-3,10a-diaza-benzo[f]azulen-2-yl]-propan-1-ol, oxalate] and Cc1c(C#CCCO)nc2n1CCc1ccccc1C2OC1CCN(C)CC1 (stereo not drawn) [Example 227, 4-[1-methyl-4-(1-methylpiperidin-4-yloxy)-9,10-dihydro-4H-3,10a-diaza-benzo[f]azulen-2-yl]-but-3-yn-1-ol] cannot be ordered by Ki: under 1 µM for the first, under 0.3 µM for the second.

Cc1c(-c2ccc(SCCNC(=N)N)cc2)nc2n1CCc1ccccc1C2OC1CCN(C)CC1 (stereo not drawn) [Example 211, N-(2-{4-[1-methyl-4-(1-methylpiperidin-4-yloxy)-9,10-dihydro-4H-3,10a-diaza-benzo[f]azulen-2-yl]-phenylsulfanyl}-ethyl)-guanidine] and Cc1c(-c2ccc(C(=O)NCCO)cc2)nc2n1CCc1ccccc1C2OC1CCN(C)CC1 (stereo not drawn) [Example 217, N-(2-hydroxyethyl)-4-[1-methyl-4-(1-methylpiperidin-4-yloxy)-9,10-dihydro-4H-3,10a-diaza-benzo[f]azulen-2-yl]-benzamide] cannot be ordered by Ki: under 0.03 µM for the first, under 0.3 µM for the second.

Cc1c(-c2ccc(NC(=O)NC34CC5CC(CC(C5)C3)C4)cc2)nc2n1CCc1ccccc1C2OC1CCN(C)CC1 (stereo not drawn) [Example 213, 1-adamantan-1-yl-3-{4-[1-methyl-4-(1-methylpiperidin-4-yloxy)-9,10-dihydro-4H-3,10a-diaza-benzo[f]azulen-2-yl]-phenyl}-urea] and Cc1c(-c2ccc(C(=O)N3CCC(O)CC3)cc2)nc2n1CCc1ccccc1C2OC1CCN(C)CC1 (stereo not drawn) [Example 220, (4-hydroxypiperidin-1-yl)-{4-[1-methyl-4-(1-methylpiperidin-4-yloxy)-9,10-dihydro-4H-3,10a-diaza-benzo[f]azulen-2-yl]-phenyl}-methanone] cannot be ordered by Ki: under 0.03 µM for the first, under 0.3 µM for the second.

CN1CCC(OC2c3ccccc3CCn3cc(-c4ccc(C(=O)N5CCC(=O)CC5)cc4)nc32)CC1 (stereo not drawn) [Example 215, 1-{4-[4-(1-methylpiperidin-4-yloxy)-9,10-dihydro-4H-3,10a-diaza-benzo[f]azulen-2-yl]-benzoyl}-piperidin-4-one] showed a Ki of under 0.3 µM.
